Reference: PMC3553014, “Albumin Stimulates the Activity of the Human UDP-Glucuronosyltransferases 1A7, 1A8, 1A10, 2A1 and 2B15, but the Effects Are Enzyme and Substrate Dependent” (PLoS ONE, 2013)
Read-outs that look alike come from different tables or passages of the source. Blank lines part the entries; values can stand above or below the compound they belong to.

Tests used:
UGT1A1 [1] = biological target: T1, UGT1A1 (Homo sapiens, UniProt P22309); conditions: read-out: No BSA: K m or S 50 ± S.E. (95% CI)
T1 sequence (P22309 26-533): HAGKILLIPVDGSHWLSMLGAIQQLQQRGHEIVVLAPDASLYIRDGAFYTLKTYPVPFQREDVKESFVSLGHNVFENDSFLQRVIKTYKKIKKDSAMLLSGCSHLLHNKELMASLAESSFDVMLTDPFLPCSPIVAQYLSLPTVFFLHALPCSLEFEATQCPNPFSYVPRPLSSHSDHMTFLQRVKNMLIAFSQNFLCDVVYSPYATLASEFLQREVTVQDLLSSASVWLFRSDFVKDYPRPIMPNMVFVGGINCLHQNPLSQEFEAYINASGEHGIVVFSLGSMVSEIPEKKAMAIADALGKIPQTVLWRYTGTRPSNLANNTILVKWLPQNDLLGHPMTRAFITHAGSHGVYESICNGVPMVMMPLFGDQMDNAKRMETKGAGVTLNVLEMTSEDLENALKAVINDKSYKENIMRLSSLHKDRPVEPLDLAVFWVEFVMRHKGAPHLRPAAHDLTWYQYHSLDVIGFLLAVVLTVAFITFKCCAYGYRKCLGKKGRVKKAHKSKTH
Experimental: (§1) Recombinant human UGTs 1A1, 1A6, 1A7, 1A8, 1A10, 2A1, 2B4, 2B7 and 2B17 were expressed as His-tagged proteins in baculovirus-infected insect cells as described previously [14]. […] Protein concentrations were determined by the BCA method (Pierce Biotechnology, Rockford, IL, USA).
(§2) The protein concentrations and incubation times for the enzyme kinetic assays were selected based on preliminary assays in order to ensure that the product formation was within the linear range with respect to both protein concentration and time, and that the substrate consumption during the reaction was less than 10%. The initial velocity measurements were performed in either duplicates or triplicates and they are presented as the average values and S.E.
The HPLC system consisted of an Agilent 1100 series degasser, binary pump, 100-vial autosampler, thermostated column compartment, multiple wavelengths UV detector, and fluorescence detector (Agilent Technologies, Palo Alto, CA, USA). […] The resulting chromatograms were analyzed with Agilent ChemStation software (rev. B.01.01) on Windows XP Professional. […] The resulting chromatograms were analyzed with Empower 2 software (Build 2154, Waters, Milford, MA, USA) on Windows XP Professional operating system. The limits of detection and quantification were estimated based on signal-to-noise ratios of 3 and 10, respectively. […]

UGT1A7 = biological target: T2, UGT1A7 (Homo sapiens, UniProt Q9HAW7); experiment: UGT1A7-catalyzed glucuronidation, enzyme kinetics; type: in vitro ADME; conditions: for V max ± S.E.: No BSA, expression level-normalized
T2 construct: His-tag; made in house; host or cells: baculovirus-infected insect cells (Sf9)
T2 sequence (Q9HAW7 26-530): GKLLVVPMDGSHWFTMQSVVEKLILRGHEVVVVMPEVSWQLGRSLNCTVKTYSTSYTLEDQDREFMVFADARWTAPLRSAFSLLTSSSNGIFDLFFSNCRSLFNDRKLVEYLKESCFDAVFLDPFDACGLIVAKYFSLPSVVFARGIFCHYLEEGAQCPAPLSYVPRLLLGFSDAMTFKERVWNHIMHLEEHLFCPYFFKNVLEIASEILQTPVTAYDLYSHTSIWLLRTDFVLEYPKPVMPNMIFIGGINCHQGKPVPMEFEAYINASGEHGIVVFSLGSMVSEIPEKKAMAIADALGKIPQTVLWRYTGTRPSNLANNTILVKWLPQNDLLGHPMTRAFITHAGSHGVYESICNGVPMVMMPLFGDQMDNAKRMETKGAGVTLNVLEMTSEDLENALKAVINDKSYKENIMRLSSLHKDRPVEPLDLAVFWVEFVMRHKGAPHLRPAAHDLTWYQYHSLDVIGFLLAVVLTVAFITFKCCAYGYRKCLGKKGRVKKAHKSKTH
Experimental: (§3) Protein concentrations were determined by the BCA method (Pierce Biotechnology, Rockford, IL, USA).
as §2
The glucuronidation rates by recombinant enzymes are reported as “expression normalized” values. […] The “expression normalized” glucuronidation rates were calculated by dividing the measured glucuronidation rates with relative expression level of the each given recombinant UGT.
The enzyme kinetic parameters were obtained by fitting kinetic models to the experimental data using GraphPad Prism version 5.04 for Windows (GraphPad Software Inc., San Diego, CA, USA).

UGT1A10 = biological target: T3, UGT1A10 (Homo sapiens, UniProt Q9HAW8); experiment: UGT1A10-catalyzed glucuronidation, enzyme kinetics; type: in vitro ADME; conditions: No BSA; expression level-normalized; estradiols: 3-glucuronide formation
T3 construct: His-tag; made in house; host or cells: baculovirus-infected insect cells (Sf9)
T3 sequence (Q9HAW8 26-530): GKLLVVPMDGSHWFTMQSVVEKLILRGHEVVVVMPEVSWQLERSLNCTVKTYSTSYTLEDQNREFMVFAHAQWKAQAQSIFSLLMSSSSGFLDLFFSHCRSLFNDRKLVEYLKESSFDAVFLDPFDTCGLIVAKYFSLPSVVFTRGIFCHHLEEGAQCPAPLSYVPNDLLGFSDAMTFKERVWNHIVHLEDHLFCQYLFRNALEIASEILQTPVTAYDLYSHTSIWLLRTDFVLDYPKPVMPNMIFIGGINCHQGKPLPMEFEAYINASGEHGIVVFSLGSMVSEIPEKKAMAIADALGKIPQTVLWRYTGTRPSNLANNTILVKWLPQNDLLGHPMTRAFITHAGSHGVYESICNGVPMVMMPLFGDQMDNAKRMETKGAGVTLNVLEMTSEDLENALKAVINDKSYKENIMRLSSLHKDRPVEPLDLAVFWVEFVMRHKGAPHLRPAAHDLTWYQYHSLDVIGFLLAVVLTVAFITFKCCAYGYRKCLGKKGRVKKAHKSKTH
Experimental: as §1, §2
The glucuronidation rates by recombinant enzymes are reported as “expression normalized” values. The relative expression level of each recombinant UGT that was produced in our laboratory was determined using immunoblotting, as previously described [14], [19]. […] The “expression normalized” glucuronidation rates were calculated by dividing the measured glucuronidation rates with relative expression level of the each given recombinant UGT.
In assays containing BSA, the total concentrations of substrate were corrected according to the measured drug binding to BSA, under the specific conditions of each glucuronidation assay.

BSA [2] = biological target: T4, BSA (Bos taurus, UniProt P02769); parameters: purchased Sigma-Aldrich (St. Louis, MO, USA); conditions: 1% BSA; cited from earlier work
[3] = test system: UGT1A9 expressed in Sf9 insect cells; conditions: darexaban glucuronidation; cited from earlier work
UGT2A1 = biological target: T5, UGT2A1 (Homo sapiens, UniProt P0DTE4); experiment: UGT2A1-catalyzed glucuronidation, enzyme kinetics; conditions: 0.1% BSA vs no BSA
T5 sequence (P0DTE4 21-527): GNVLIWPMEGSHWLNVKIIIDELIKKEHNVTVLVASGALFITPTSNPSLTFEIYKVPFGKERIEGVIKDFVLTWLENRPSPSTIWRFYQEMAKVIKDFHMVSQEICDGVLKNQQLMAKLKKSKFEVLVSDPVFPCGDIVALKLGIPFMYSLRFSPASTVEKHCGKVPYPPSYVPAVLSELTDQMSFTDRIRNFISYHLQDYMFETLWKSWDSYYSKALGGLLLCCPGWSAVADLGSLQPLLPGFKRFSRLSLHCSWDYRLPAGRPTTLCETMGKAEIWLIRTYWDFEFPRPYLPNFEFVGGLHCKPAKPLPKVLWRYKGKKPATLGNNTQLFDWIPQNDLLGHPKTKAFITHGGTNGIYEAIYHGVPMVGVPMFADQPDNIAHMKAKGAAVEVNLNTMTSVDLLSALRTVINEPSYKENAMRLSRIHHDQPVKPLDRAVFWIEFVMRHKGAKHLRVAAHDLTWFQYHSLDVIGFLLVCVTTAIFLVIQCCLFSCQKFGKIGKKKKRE
Experimental: as §1, §2
(§4) The glucuronidation rates by recombinant enzymes are reported as “expression normalized” values. The relative expression level of each recombinant UGT that was produced in our laboratory was determined using immunoblotting, as previously described [14], [19]. The dot blot assays were performed in triplicate and the average value was used for normalization. […] The “expression normalized” glucuronidation rates were calculated by dividing the measured glucuronidation rates with relative expression level of the each given recombinant UGT.
(§5) In assays containing BSA, the total concentrations of substrate were corrected according to the measured drug binding to BSA, under the specific conditions of each glucuronidation assay. The statistical significance of the difference in enzyme kinetics parameters upon BSA addition was tested with extra sum-of-squares F-test (included in the GraphPad software, [20]. The initial glucuronidation rates were fitted to the following equations:

UGT2B7 = biological target: T6, UGT2B7 (Homo sapiens, UniProt P16662); conditions: No BSA; expression level-normalized; estradiols: 17-glucuronide formation
T6 sequence (P16662 24-529): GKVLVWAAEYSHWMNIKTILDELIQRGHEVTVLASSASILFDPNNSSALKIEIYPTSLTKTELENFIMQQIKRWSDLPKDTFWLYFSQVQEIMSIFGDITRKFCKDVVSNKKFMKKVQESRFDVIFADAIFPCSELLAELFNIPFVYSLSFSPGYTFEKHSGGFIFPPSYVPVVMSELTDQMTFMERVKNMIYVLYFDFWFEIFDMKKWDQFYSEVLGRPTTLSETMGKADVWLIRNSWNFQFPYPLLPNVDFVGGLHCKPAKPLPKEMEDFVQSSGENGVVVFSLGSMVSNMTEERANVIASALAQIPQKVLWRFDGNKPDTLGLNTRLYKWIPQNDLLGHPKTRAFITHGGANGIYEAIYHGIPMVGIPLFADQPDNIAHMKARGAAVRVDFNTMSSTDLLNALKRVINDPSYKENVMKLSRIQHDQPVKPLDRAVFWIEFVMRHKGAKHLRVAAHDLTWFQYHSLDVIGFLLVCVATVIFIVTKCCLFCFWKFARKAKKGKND
Experimental: as §3, §2
(§6) The glucuronidation rates by recombinant enzymes are reported as “expression normalized” values. […] The dot blot assays were performed in triplicate and the average value was used for normalization. […] The “expression normalized” glucuronidation rates were calculated by dividing the measured glucuronidation rates with relative expression level of the each given recombinant UGT.
as §5

UGT2B15 = biological target: T7, UGT2B15 (Homo sapiens, UniProt P54855)
T7 sequence (P54855 24-530): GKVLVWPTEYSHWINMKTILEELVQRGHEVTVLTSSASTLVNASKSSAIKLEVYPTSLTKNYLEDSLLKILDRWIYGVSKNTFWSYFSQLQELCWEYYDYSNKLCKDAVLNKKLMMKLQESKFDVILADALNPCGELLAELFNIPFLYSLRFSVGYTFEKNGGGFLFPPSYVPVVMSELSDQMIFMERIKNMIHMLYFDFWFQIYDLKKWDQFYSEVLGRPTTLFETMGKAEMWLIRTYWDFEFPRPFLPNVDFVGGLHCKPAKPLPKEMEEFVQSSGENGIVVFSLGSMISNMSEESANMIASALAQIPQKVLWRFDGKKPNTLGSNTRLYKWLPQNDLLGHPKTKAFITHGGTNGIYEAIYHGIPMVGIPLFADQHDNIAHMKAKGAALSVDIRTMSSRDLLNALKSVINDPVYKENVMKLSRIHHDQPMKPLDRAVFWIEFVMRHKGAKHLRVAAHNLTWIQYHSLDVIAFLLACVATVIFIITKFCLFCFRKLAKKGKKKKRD
Experimental: as §1, §2, §4, §5

UGT1A1 [4] = biological target: T1, UGT1A1; experiment: UGT1A1-catalyzed glucuronidation, enzyme kinetics; conditions: No BSA; expression level-normalized; estradiols: 3-glucuronide formation
Experimental: as §1, §2, §4, §5

UGT1A6 = biological target: T8, UGT1A6 (Homo sapiens, UniProt P19224); experiment: UGT1A6-catalyzed glucuronidation, enzyme kinetics; conditions: No BSA; expression level-normalized
T8 sequence (P19224 27-532): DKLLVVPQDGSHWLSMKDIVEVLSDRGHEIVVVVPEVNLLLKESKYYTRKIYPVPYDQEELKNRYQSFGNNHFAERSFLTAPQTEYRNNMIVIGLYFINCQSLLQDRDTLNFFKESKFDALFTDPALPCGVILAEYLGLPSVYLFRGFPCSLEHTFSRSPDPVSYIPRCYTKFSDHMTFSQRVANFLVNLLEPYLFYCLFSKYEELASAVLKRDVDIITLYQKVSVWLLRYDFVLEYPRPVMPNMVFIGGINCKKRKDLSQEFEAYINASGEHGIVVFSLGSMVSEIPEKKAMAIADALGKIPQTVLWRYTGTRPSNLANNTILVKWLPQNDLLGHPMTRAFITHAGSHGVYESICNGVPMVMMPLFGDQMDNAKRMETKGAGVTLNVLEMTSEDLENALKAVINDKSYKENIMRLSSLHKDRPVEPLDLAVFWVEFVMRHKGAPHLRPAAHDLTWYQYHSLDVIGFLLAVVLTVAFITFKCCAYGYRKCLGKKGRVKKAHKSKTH
Experimental: as §1, §2, §4, §5

BSA [5] = biological target: T4, BSA; experiment: in vitro; conditions: bovine
[6] = Nonspecific binding to the RED device; conditions: rapid equilibrium dialysis
UGT2B4 = biological target: T9, UGT2B4 (Homo sapiens, UniProt P06133); experiment: UGT2B4-catalyzed glucuronidation, enzyme kinetics
T9 sequence (P06133 24-528): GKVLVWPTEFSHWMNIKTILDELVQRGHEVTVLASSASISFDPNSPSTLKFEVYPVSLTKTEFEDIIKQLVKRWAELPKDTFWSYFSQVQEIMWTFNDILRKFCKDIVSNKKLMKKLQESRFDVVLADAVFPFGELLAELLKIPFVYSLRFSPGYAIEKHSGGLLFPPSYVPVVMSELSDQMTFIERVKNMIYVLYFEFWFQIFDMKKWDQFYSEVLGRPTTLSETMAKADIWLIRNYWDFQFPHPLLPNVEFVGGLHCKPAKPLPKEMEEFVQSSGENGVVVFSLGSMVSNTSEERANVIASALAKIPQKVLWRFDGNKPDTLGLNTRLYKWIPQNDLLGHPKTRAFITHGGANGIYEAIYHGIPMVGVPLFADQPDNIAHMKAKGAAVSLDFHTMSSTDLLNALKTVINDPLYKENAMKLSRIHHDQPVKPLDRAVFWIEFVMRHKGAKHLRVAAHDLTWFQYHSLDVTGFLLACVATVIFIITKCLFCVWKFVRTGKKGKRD
Experimental: as §3, §2, §6, §5

[7] = Drug binding to control insect cell membranes by RED; conditions: 0.2 mg/mL total protein in the membrane

T4 sequence (P02769 25-607): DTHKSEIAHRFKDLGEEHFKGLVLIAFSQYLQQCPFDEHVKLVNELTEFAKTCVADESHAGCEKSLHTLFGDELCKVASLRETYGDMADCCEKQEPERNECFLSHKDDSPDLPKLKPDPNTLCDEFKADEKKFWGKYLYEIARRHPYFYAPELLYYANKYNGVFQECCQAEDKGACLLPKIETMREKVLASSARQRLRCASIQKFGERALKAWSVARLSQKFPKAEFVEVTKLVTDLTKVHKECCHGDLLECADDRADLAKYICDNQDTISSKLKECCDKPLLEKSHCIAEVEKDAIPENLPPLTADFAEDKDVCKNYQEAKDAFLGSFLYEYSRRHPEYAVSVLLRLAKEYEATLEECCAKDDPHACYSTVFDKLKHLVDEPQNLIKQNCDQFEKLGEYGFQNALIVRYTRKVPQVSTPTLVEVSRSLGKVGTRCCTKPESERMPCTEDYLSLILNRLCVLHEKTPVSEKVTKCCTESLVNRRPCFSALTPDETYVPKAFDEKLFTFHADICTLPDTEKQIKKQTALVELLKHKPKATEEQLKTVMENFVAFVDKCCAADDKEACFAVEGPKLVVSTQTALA

Compound: 17β-estradiol
- Km (UGT1A1 [1]): 7.84 µM

Compound: bovine serum albumin [BSA]
- V max increase on inclusion of 0.1% BSA (UGT1A7; 0.1% BSA vs no BSA): up to 7 fold
- effect of 2% BSA instead of 0.1% BSA [3]: very little effect
- decrease of K m values on inclusion of 0.1% BSA (UGT2A1): up to 20 fold

Compound: Cc1cc(=O)oc2cc(O)ccc12 [4-MU, 4-Methylumbelliferone]
- V max ± S.E. (UGT1A7): 0.25±0.01(0.22–0.28) nmol•min^–1•mg^–1
- V max ± S.E. (UGT1A10): 8.0±0.3(7.3–8.7) nmol•min^–1•mg^–1
- V max ± S.E. (UGT2B7): 0.28±0.03(0.22–0.34) nmol•min^–1•mg^–1
- V max ± S.E. (UGT2B15; No BSA, measured rates, not expression normalized, 17α-estradiol: 3-glucuronide formation): 0.83±0.01(0.82–0.85) nmol•min^–1•mg^–1
- V max ± S.E. (UGT1A1 [4]): 0.11±0.004(0.11–0.12) nmol•min^–1•mg^–1
- V max ± S.E. (UGT1A6): 5.2±0.3(4.5–6.0) nmol•min^–1•mg^–1

Continued, in another order:

- V max ± S.E. (UGT1A7): 0.15±0.01(0.14–0.16) nmol•min^–1•mg^–1
- V max ± S.E. (UGT1A10): 0.91±0.01(0.89–0.94) nmol•min^–1•mg^–1
Compound: CCN(CC)C(=O)/C(C#N)=C/c1cc(O)c(O)c([N+](=O)[O-])c1 [Entacapone]
- f u (unbound fraction) (BSA [2]): < 0.1

- fraction unbound at 6 h (BSA [5]): 0.84 to 0.97
- nonspecific binding to the RED device [6]: ≤ 10%
- V max ± S.E. (UGT1A6): 7.0±0.8(5.3–8.7) nmol•min^–1•mg^–1
Compound: Oc1ccc2cc[nH]c2c1 [6-Hydroxyindole, 6-hydroxyindole]

- K m or S 50 ± S.E. (UGT2B15; 0.1% BSA, substrate concentration corrected for binding to BSA, 17α-estradiol: 3-glucuronide formation): 5.58±0.56 ^***(4.24–6.74) µM
- fraction unbound at 8 h (BSA [5]): 0.49 ± 0.01
- K m or S 50 ± S.E. (UGT2B4): 1.60±0.23 ^***(1.12–2.08) µM
- binding to control insect cell membrane [7]: negligible
Compound: C[C@]12CC[C@@H]3c4ccc(O)cc4CC[C@H]3[C@@H]1CC[C@H]2O [17α-Estradiol, 17α-estradiol]
- V max ± S.E. (UGT2B15): 0.069±0.003(0.062–0.076) nmol•min^–1•mg^–1
- V max ± S.E. (UGT2B4): 0.053±0.002(0.048–0.058) nmol•min^–1•mg^–1
